Substitutions are numbered along the chain they refer to.
How the values were obtained:
Experiment in all cases: biochemical
[1] = molecular target: T1, Amaranthus mutant PPO (AMARE) (Amaranthus tuberculatus, UniProt Q0NZW9, F420M)
T1 sequence (Q0NZW9 1-534 F420M): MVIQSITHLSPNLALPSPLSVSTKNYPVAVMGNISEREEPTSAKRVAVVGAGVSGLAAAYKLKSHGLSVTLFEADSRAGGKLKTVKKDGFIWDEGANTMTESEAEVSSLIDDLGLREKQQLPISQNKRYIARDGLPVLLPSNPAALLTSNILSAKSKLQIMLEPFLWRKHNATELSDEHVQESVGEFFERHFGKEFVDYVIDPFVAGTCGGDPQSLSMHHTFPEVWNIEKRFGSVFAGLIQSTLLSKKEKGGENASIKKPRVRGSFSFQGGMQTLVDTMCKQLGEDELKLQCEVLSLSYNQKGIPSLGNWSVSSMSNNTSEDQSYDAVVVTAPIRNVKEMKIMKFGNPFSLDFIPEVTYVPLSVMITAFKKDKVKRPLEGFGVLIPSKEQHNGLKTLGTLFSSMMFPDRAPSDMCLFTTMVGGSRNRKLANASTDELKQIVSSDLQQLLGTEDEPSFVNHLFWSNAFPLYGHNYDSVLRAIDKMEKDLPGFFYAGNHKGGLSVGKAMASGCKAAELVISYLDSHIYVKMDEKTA

[2] = molecular target: T2, Amaranthus mutant PPO (AMARE) (Amaranthus tuberculatus, UniProt Q0NZW9, R128I)
T2 sequence (Q0NZW9 1-534 R128I): T1 sequence (Q0NZW9 1-534 F420M) with R128I, M420F

[3] = molecular target: T3, Amaranthus mutant PPO (AMARE) (Amaranthus tuberculatus, UniProt Q0NZW9, F420I)
T3 sequence (Q0NZW9 1-534 F420I): T1 sequence (Q0NZW9 1-534 F420M) with M420I

[4] = molecular target: T4, Amaranthus mutant PPO (AMARE) (Amaranthus tuberculatus, UniProt Q0NZW9, F420M/R128A)
T4 sequence (Q0NZW9 1-534 R128A/F420M): T1 sequence (Q0NZW9 1-534 F420M) with R128A

[5] = molecular target: T5, Amaranthus mutant PPO (AMARE) (Amaranthus tuberculatus, UniProt Q0NZW9, F420L)
T5 sequence (Q0NZW9 1-534 F420L): T1 sequence (Q0NZW9 1-534 F420M) with M420L

CC(C)N(C)S(=O)(=O)NC(=O)c1cc(-n2c(=O)cc(C(F)(F)F)n(C)c2=O)c(F)cc1Cl [saflufenacil] was tested, and the IC50 [1] was 677 nM, the IC50 [2] was 365 nM and the IC50 [3] was 919 nM. For the same compound, the IC50 [4] was greater than 10000 nM and the IC50 [5] was 7200 nM.

Source: patent publication US10392630B2, “Plants having increased tolerance to herbicides” (BASF AGRO B.V., priority 2013, dated 2019)
